The results in this text go back to US20200190077A1, “NEUROPROTECTIVE HYDRAZIDES” (priority 2018, published 2020).

Structures are written as SMILES.

For test [1], the system named is SUMOylation of His-RanGap (SUMO-E1 (SAE), SUMO-E2 (UBC9), GST-SUMO). In words: HTRF assay measuring increase in SUMOylation of His-RanGap. Type of test: biochemical. The note with it: His-RanGap substrate; HTRF 665/620 ratio; 30 min at room temperature; triplicate. Here is the method:
Assay Measuring Increase in SUMOylation of his-RanGap.
We utilized an HTRF assay containing SUMO-E1 (SAE), SUMO-E2 (UBC9), GST-SUMO and His-RanGap, a known SUMO substrate, as well as the respective fluorescent antibodies. The assay was run in 1536-well plate format and the selected activators were chosen based on their ability to increase the FRET signal over a baseline level. In 1536-well white plates, 2 μl of phosphate buffered saline (assay buffer) was dispensed into columns 1 and 2, and 2 μl of Mixture 1 (37.5 nM E1 and 100 nM His-RanGap-1) in assay buffer (50 mM Tris-HCl pH 7.4, 0.3 mM DTT, 10 mM MgCl2, 0.005% Tween-20), was dispensed into columns 3-48. Using a pintool, 70 nl of 2 mM compounds in DMSO was dispensed to columns 5-48 and 70 nl of DMSO was dispensed to columns 1-4. Using the Thermo Scientific MultiDrop Combi, 2 μL of Mixture 2 (20 mM ATP, 12.5 nM E2 and 30 nM GST-SUMO in buffer) was dispensed to all wells and incubated for 30 min. at room temperature followed by 1 μl of 500 mM KF. Plates were read on a PheraStar in a HTRF mode (Ex: 337 nm; Em: 620/665 nm). The ratio of fluorescence 665 over 620 was utilized as a readout of the assay. Increase in SUMOylation was calculated by comparison to baseline level. Measurements were done in triplicate.

The test system of test [2] is CSM14.1 neuronal cells. As to the kind of experiment: Rescue of CSM14.1 neurons from thapsigargin-induced cell death (ATPlite). Type of test: cell-based. The note with it: Rattus norvegicus, Neuron; 15 μM thapsigargin, 20 h; 10 μM compound, 2 h preincubation; cellular ATP content; read-out: % CSM14.1 Cell Viability after treatment with 15 μM TG in Presence of 10 μM compound. The source says:
Ability of Compounds to Rescue CSM14.1 Neurons from Thapsigargin-Induced Cell Death.
To assess the ability of the compounds to rescue neurons from ER stress-induced cell death, the rat striatal neuroprogenitor cell line CSM14.1 was used. Endoplasmic reticulum (ER) stress has been established as the major cause of neuronal loss in stroke, ischemia, and neurodegeneration (Tajiri, S.; Oyadomari, S.; Yano, S.; Morioka, M.; Gotoh, T.; Hamada, J. I.; Ushio, Y.; Mori, M. Cell Death Differ. 2004, 11, 403-415; Kohno, K.; Higuchi, T.; Ohta, S.; Kumon, Y.; Sakaki, S. Neurosci. Lett. 1997, 224, 17-20; ladecola, C.; Zhang, F.; Casey, R.; Nagayama, M.; Ross, M. E. J. Neurosci. 1997, 17, 9157-9164). Thus, we used the known ER stress-causing agent thapsigargin (TG) to model the compromised state in vitro. TG causes 100% cell death in most cases, and compounds were assessed for neuroprotection by measuring cell viability when dosed at 10 μM. CSM14.1 cells were recovered from cultures by trypsinization and plated in 96-well plates and incubated overnight at 32° C. 5 μl of test compound was added to achieve a final concentration of […]. Salubrinal and DMSO without compound were used as positive and negative controls, respectively. After 2 h of preincubation, TG-containing DMEM was added to give a final concentration of 15 μM and incubated for an additional 20 h. Cell viability was assessed by a cellular ATP content assay (ATPlite, PerkinElmer Life Sciences).
A general note: Cellular ATP, detected with luciferase, serves as a proxy for viable cell number.

The term viability denotes a read-out of living cells in per cent, often relative to untreated cells. `Cc1ccc2sc(NNC(=O)c3cc(=O)c4ccccc4o3)nc2c1C` [Compound B1, N′-(4,5-dimethylbenzo[d]thiazol-2-yl)-4-oxo-4H-chromene-2-carbohydrazide]: in test [1], the “% INCREASE IN SUMOylation over endogenous baseline level” value is “C (C = 31%-40% increase)”. Further, the viability at 10 µM in test [2] was in the range of 40 to 50%.
In the same order, the values of `Cc1cc(C)c2nc(NNC(=O)c3cc(=O)c4ccccc4o3)sc2c1` [Compound B2, N′-(4,6-Dimethylbenzo[d]thiazol-2-yl)-4-oxo-4H-chromene-2-carbohydrazide] are “C (C = 31%-40% increase)” and 51 to 60%.
In the same order, the values of `COc1cccc2sc(NNC(=O)C3COc4ccccc4O3)nc12` (stereo not drawn) [Compound B3, N′-(4-methoxybenzo[d]thiazol-2-yl)-2,3-dihydrobenzo[b][1,4]dioxine-2-carbohydrazide] are “A (A = 10%-20% increase)” and 51 to 60%.
